Test results as given in ChEMBL document CHEMBL1141910, “Combinatorial approaches towards the discovery of new tryptase inhibitors” (Bioorg Med Chem Lett, 2005).

Experiments:
Tryptase beta-1 [1] = biological target: T1, Tryptase beta-1 (Homo sapiens, UniProt Q15661); experiment: Percentage inhibition against tryptase at 10 uM
Target sequence in this assay (Q15661 31-275 limits assumed): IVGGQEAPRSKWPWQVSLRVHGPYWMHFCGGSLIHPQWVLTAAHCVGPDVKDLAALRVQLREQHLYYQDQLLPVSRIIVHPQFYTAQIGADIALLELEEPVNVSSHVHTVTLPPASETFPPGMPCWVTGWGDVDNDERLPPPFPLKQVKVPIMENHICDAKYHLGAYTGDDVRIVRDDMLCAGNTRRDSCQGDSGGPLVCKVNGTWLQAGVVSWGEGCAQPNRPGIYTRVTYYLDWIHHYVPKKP

Tryptase beta-1 [2] = biological target: T1, Tryptase beta-1; experiment: Inhibitory concentration against tryptase
Target sequence in this assay (Q15661 whole entry): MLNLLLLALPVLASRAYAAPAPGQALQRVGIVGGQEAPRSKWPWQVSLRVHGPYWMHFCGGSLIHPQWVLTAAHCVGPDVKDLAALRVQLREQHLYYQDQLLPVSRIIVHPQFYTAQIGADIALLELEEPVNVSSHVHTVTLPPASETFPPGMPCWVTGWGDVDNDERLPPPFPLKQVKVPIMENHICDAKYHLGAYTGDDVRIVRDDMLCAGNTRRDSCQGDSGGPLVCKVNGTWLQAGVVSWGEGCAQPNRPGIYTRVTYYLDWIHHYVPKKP

With `CN(CCC(=O)NCCCC[C@@H]1NC(=O)[C@H](CC(=O)Nc2cccc(C(=N)N)c2)NC1=O)C(=N)N` the inhibition (Tryptase beta-1 [1]) was 62.6% and the IC50 (Tryptase beta-1 [2]) was 12.8 µM.
Work on `N=C(N)NCC(=O)O` yielded an inhibition (Tryptase beta-1 [1]) of -3%.
`N=C(N)NCCCC(=O)NCCCC[C@@H]1NC(=O)[C@H](CCCCNC(=O)[C@H](CCCNC(=N)N)NC(=O)OCc2ccccc2)NC1=O` was tested, and the inhibition (Tryptase beta-1 [1]) was 83% and the IC50 (Tryptase beta-1 [2]) was 2.2 µM.
`NC1=NCCN1CC(=O)O` gave an inhibition (Tryptase beta-1 [1]) of 3.24%.
With `N=C(N)NCCC[C@H](NC(=O)OCc1ccccc1)C(=O)NCCCC[C@@H]1NC(=O)[C@H](CC(=O)Nc2cccc(C(=N)N)c2)NC1=O` the inhibition (Tryptase beta-1 [1]) was 59%.
`CN(CCC(=O)NCCCC[C@@H]1NC(=O)[C@H](CCCCNC(=O)CCN=C(N)N)NC1=O)C(=N)N` showed an inhibition (Tryptase beta-1 [1]) of 51.7%.
`N=C(N)NCCCC(NC(=O)c1ccccc1)C(=O)O` (configuration not stated) gave an inhibition (Tryptase beta-1 [1]) of 7.53%.
With `N=C(N)NCCC[C@H](NC(=O)OCc1ccccc1)C(=O)NCCCC[C@@H]1NC(=O)[C@H](CCCCNC(=O)[C@H](CCCN=C(N)N)NC(=O)c2ccccc2)NC1=O` the inhibition (Tryptase beta-1 [1]) was 43.3%.
`N=C(N)NCCC[C@H](N)C(=O)O` showed an inhibition (Tryptase beta-1 [1]) of 3.71%.
With `CN(CCC(=O)O)C(=N)N` the inhibition (Tryptase beta-1 [1]) was 2.55%.
Compound `N=C(N)NCCCCC(=O)O` has an inhibition (Tryptase beta-1 [1]) of 0.23%.
In the case of `N=C(N)NCCCC(=O)NCCCC[C@@H]1NC(=O)[C@H](CCCCNC(=O)[C@H](CCCNC(=N)N)NC(=O)c2ccccc2)NC1=O`, the inhibition (Tryptase beta-1 [1]) is reported as 80.5% and the IC50 (Tryptase beta-1 [2]) is reported as 2.4 µM.
With `NC(N)=Nc1ccc(C(=O)NCCCC[C@@H]2NC(=O)[C@H](CCCCNC(=O)CN3CCN=C3N)NC2=O)cc1` the IC50 (Tryptase beta-1 [2]) was 4.4 µM.
With `N=C(N)c1cccc(NC(=O)C[C@@H]2NC(=O)[C@H](CCCCNC(=O)CN3CCN=C3N)NC2=O)c1` the inhibition (Tryptase beta-1 [1]) was 47.7%.
`N=C(N)NCCCC(NC(=O)OCc1ccccc1)C(=O)O` (configuration not stated) was tested, and the inhibition (Tryptase beta-1 [1]) was 1.97%.
`N=C(N)NCCC[C@H](NC(=O)OCc1ccccc1)C(=O)NCCCC[C@@H]1NC(=O)[C@H](CCCCNC(=O)[C@H](CCCN=C(N)N)NC(=O)OCc2ccccc2)NC1=O` gave an inhibition (Tryptase beta-1 [1]) of 48.5% and an IC50 (Tryptase beta-1 [2]) of 4.1 µM.
With `N=C(N)NCCC[C@H](NC(=O)c1ccccc1)C(=O)NCCCC[C@@H]1NC(=O)[C@H](CC(=O)Nc2ccc(C(=N)N)cc2)NC1=O` the inhibition (Tryptase beta-1 [1]) was 45%.
Compound `CN(CCC(=O)NCCCC[C@@H]1NC(=O)[C@H](CCCCNC(=O)CCCN=C(N)N)NC1=O)C(=N)N` has an inhibition (Tryptase beta-1 [1]) of 36.7%.
`N=C(N)Nc1ccc(C(=O)O)cc1` showed an inhibition (Tryptase beta-1 [1]) of 38.8%.
`N=C(N)NCCCCC(=O)NCCCC[C@@H]1NC(=O)[C@H](CCCCNC(=O)[C@H](CCCNC(=N)N)NC(=O)c2ccccc2)NC1=O` showed an inhibition (Tryptase beta-1 [1]) of 47.5% and an IC50 (Tryptase beta-1 [2]) of 9.3 µM.
`N=C(N)Nc1ccc(C(=O)NCCCC[C@@H]2NC(=O)[C@H](CC(=O)Nc3ccc(C(=N)N)cc3)NC2=O)cc1` was tested, and the inhibition (Tryptase beta-1 [1]) was 73.9%.
Compound `CN(CCC(=O)NCCCC[C@@H]1NC(=O)[C@H](CCCCNC(=O)CCNC(=N)N)NC1=O)C(=N)N` has an IC50 (Tryptase beta-1 [2]) of 5.9 µM.
`N=C(N)NCCCCC(=O)NCCCC[C@@H]1NC(=O)[C@H](CCCCNC(=O)CCCNC(=N)N)NC1=O` gave an inhibition (Tryptase beta-1 [1]) of 44.4%.
`N=C(N)NCCCCC(=O)NCCCC[C@@H]1NC(=O)[C@H](CCCCNC(=O)[C@H](CCCNC(=N)N)NC(=O)OCc2ccccc2)NC1=O` gave an inhibition (Tryptase beta-1 [1]) of 68% and an IC50 (Tryptase beta-1 [2]) of 5.7 µM.
Work on `N=C(N)NCCCC(NC(=O)OCC1c2ccccc2-c2ccccc21)C(=O)NCCCC[C@@H]1NC(=O)[C@H](CC(=O)Nc2ccc(C(=N)N)cc2)NC1=O` (some centres not stated) yielded an inhibition (Tryptase beta-1 [1]) of 64.5%.
Compound `N=C(N)NCC(=O)NCCCC[C@@H]1NC(=O)[C@H](CC(=O)Nc2cccc(C(=N)N)c2)NC1=O` has an inhibition (Tryptase beta-1 [1]) of 58.6% and an IC50 (Tryptase beta-1 [2]) of 19.9 µM.
Compound `N=C(N)NNC(=O)C[C@@H]1NC(=O)[C@H](CCCCNC(=O)c2ccc(NC(=N)N)cc2)NC1=O` has an inhibition (Tryptase beta-1 [1]) of 42.5%.
Work on `N=C(N)NCCC[C@H](NC(=O)c1ccccc1)C(=O)NCCCC[C@@H]1NC(=O)[C@H](CCCCNC(=O)CCNC(=N)N)NC1=O` yielded an inhibition (Tryptase beta-1 [1]) of 31.2%.
`N=C(N)NCCCC(=O)NCCCC[C@@H]1NC(=O)[C@H](CCCCNC(=O)CCCNC(=N)N)NC1=O` gave an inhibition (Tryptase beta-1 [1]) of 59.3% and an IC50 (Tryptase beta-1 [2]) of 4.7 µM.
Compound `N=C(N)NCCCC(=O)O` has an inhibition (Tryptase beta-1 [1]) of 8.92%.
With `N=C(N)NCCCC(NC(=O)OCC1c2ccccc2-c2ccccc21)C(=O)NCCCC[C@@H]1NC(=O)[C@H](CC(=O)Nc2cccc(C(=N)N)c2)NC1=O` (some centres not stated) the inhibition (Tryptase beta-1 [1]) was 62.6% and the IC50 (Tryptase beta-1 [2]) was 9.09 µM.
`N=C(N)c1ccc(C(=O)O)cc1` showed an inhibition (Tryptase beta-1 [1]) of 2.9%.
In the case of `N=C(N)NCCC[C@H](NC(=O)c1ccccc1)C(=O)NCCCC[C@@H]1NC(=O)[C@H](CC(=O)Nc2cccc(C(=N)N)c2)NC1=O`, the inhibition (Tryptase beta-1 [1]) is reported as 70.6% and the IC50 (Tryptase beta-1 [2]) is reported as 12.4 µM.
`N=C(N)Nc1ccc(C(=O)NCCCC[C@@H]2NC(=O)[C@H](CC(=O)Nc3cccc(C(=N)N)c3)NC2=O)cc1` gave an inhibition (Tryptase beta-1 [1]) of 47.3%.
`N=C(N)NCCC(=O)O` was tested, and the inhibition (Tryptase beta-1 [1]) was -6%.
Work on `N=C(N)NCCC(=O)NCCCC[C@@H]1NC(=O)[C@H](CC(=O)Nc2cccc(C(=N)N)c2)NC1=O` yielded an inhibition (Tryptase beta-1 [1]) of 76.5% and an IC50 (Tryptase beta-1 [2]) of 23.6 µM.
Compound `N=C(N)Nc1ccc(C(=O)NCCCC[C@@H]2NC(=O)[C@H](CCCCNC(=O)CN3CCN=C3N)NC2=O)cc1` has an inhibition (Tryptase beta-1 [1]) of 61.1%.
For `N=C(N)NCCC[C@H](NC(=O)OCc1ccccc1)C(=O)NCCCC[C@@H]1NC(=O)[C@H](CC(=O)Nc2ccc(C(=N)N)cc2)NC1=O`, the inhibition (Tryptase beta-1 [1]) was 41.6%.
`N=C(N)NCCCC(=O)NCCCC[C@@H]1NC(=O)[C@H](CC(=O)Nc2cccc(C(=N)N)c2)NC1=O` was tested, and the inhibition (Tryptase beta-1 [1]) was 54.4% and the IC50 (Tryptase beta-1 [2]) was 21.3 µM.
With `N=C(N)NCCCC(NC(=O)OCC1c2ccccc2-c2ccccc21)C(=O)NCCCC[C@@H]1NC(=O)[C@H](CC(=O)/N=C(\N)NNCCCc2ccccc2)NC1=O` (some centres not stated) the inhibition (Tryptase beta-1 [1]) was 49.3%.
